Tests used:
[1] = tested on: Cats After Traumatic Spinal Cord Injury; assay: Neurologic recovery in cats after traumatic spinal cord injury (C-7 weight-drop); assay type: in vivo, cat; design: key to total functional score (forelimb + hindlimb scores): sum of forelimb + hindlimb scores, each 0 = no movement to 5 = normal; conditions: for neurologic and motoric function compared with saline: after 6 weeks
Experimental: Cats anesthetized with sodium pentobarbital were subjected under aseptic conditions to a laminectomy to expose the C-7 spinal segment. With the dura intact, the spinal cord was traumatized by dropping a 20 g weight a distance of 30 cm through a guide tube onto a 10 square-millimeter impact plate. Drugs were given intravenously as a bolus injection (0.5 ml) at 1 and 3 hours after injury. A group of 9 animals was treated with 0.2mg/kg of orotyl-L-histidyl-L-prolinamide dissolved in 0.5 ml of physiological saline. A second group of 7 animals was given 1 mg/kg L-pyro-2-aminoapidyl-L-nistidyl-thiazolidine-4-carboxamide (also dissolved in 0.5 ml of physiological saline), which compound is referred to hereinafter as "compound A" and which has been described in the literature as an active TRH-modification product and has also been compared with the aforementioned orotylL-histidyl-L-prolinamide (c.f. Metcalf in Thyrotropin Releasing Hormone, E. C. Griffiths et al., eds., Raven Press, New York, 1983, pp. 315-26). A control group of 11 animals was treated with 0.5 ml of physiological saline per animal.
Neurologic function was evaluated weekly for six weeks by a neurologist who was unaware of the treatment group and assessed according to a six-point ordinal scale as described by Faden et al. in Neurology, Vol. 33, pp. 673-678 (1983). Forelimb and hindlimb function were scored separately as follows: 0 =absence of voluntary movement; 1 =spontaneous movement but inability to support weight; 2=ability to support weight but unable to walk; 3=ability to walk but with marked spasticity and/or ataxia; 4=ability to run but with mild spasticity or ataxia; and 5=normal motor function. Forelimb and hindlimb scores were then added together to obtain a total functional score.

[2] = tested on: experimental spinal cord injury; conditions: animal experiments; treatment during the first 24 hours following the trauma; cited from earlier work
[3] = tested on: brain stem compression in cats; conditions: cited from earlier work

NC(=O)C1CSCN1C(=O)[C@H](Cc1c[nH]cn1)NC(=O)[C@@H]1CCCC(=O)N1 (stereo partly drawn) [A, L-pyro-2-aminoapidyl-L-nistidyl-thiazolidine-4-carboxamide]
neurologic and motoric function compared with saline ([1]; 1 mg/kg i.v. at 1 and 3 hours after injury): did not differ significantly from those of saline | total functional score (forelimb + hindlimb scores) ([1]; week 1 after injury, 1 mg/kg i.v. bolus at 1 and 3 hours after injury, n = 7): 4 | total functional score (forelimb + hindlimb scores) ([1]; week 2 after injury, 1 mg/kg i.v. bolus at 1 and 3 hours after injury, n = 7): 5 | total functional score (forelimb + hindlimb scores) ([1]; week 3 after injury, 1 mg/kg i.v. bolus at 1 and 3 hours after injury, n = 7): 5 | total functional score (forelimb + hindlimb scores) ([1]; week 4 after injury, 1 mg/kg i.v. bolus at 1 and 3 hours after injury, n = 7): 5 | total functional score (forelimb + hindlimb scores) ([1]; week 5 after injury, 1 mg/kg i.v. bolus at 1 and 3 hours after injury, n = 7): 6 | total functional score (forelimb + hindlimb scores) ([1]; week 6 after injury, 1 mg/kg i.v. bolus at 1 and 3 hours after injury, n = 7): 6

NC(=O)[C@@H]1CCCN1C(=O)[C@H](Cc1c[nH]cn1)NC(=O)[C@@H]1CCC(=O)N1 [TRH, L-pyroglutamyl-L-histidyl-L-prolinamide]
recovery of the motoric function after experimental spinal cord injury [2]: significantly improves recovery of the motoric function | effect on EEG alterations resulting from traumata of the brain [3]: dose-dependent positive effect

NC(=O)[C@@H]1CCCN1C(=O)[C@H](Cc1c[nH]cn1)NC(=O)c1cc(=O)[nH]c(=O)[nH]1 [Compound of Invention, orotyl-L-histidyl-L-prolinamide]
neurologic and motoric function compared with saline ([1]; 0.2 mg/kg i.v. at 1 and 3 hours after injury): significantly improved | total functional score (forelimb + hindlimb scores) ([1]; week 1 after injury, 0.2 mg/kg i.v. bolus at 1 and 3 hours after injury, n = 9): 6 | total functional score (forelimb + hindlimb scores) ([1]; week 2 after injury, 0.2 mg/kg i.v. bolus at 1 and 3 hours after injury, n = 9): 6 | total functional score (forelimb + hindlimb scores) ([1]; week 3 after injury, 0.2 mg/kg i.v. bolus at 1 and 3 hours after injury, n = 9): 6 | total functional score (forelimb + hindlimb scores) ([1]; week 4 after injury, 0.2 mg/kg i.v. bolus at 1 and 3 hours after injury, n = 9): 7 | total functional score (forelimb + hindlimb scores) ([1]; week 5 after injury, 0.2 mg/kg i.v. bolus at 1 and 3 hours after injury, n = 9): 8 | total functional score (forelimb + hindlimb scores) ([1]; week 6 after injury, 0.2 mg/kg i.v. bolus at 1 and 3 hours after injury, n = 9): 8
